From publication PMC9718554, “Discovery of a fragment hit compound targeting D-Ala:D-Ala ligase of bacterial peptidoglycan biosynthesis” (Journal of Enzyme Inhibition and Medicinal Chemistry, 2022)
Read-outs that look alike come from different tables or passages of the source. Each block holds one molecule with its values, some of them ahead of it.

Tests used:
[1] = molecular target: T1, E. coli DdlB enzyme (D-alanine:D-alanine ligase) (Escherichia coli, UniProt P07862); test: biochemical; settings: read-out: DdlB RA; for remaining activity at 1700 µM: tested concentration 1.7 mM; for remaining activity at 1900 µM: tested concentration 1.9 mM; for remaining activity at 2000 µM: tested concentration 2.0 mM; for remaining activity at 2200 µM: tested concentration 2.2 mM; for remaining activity at 1800 µM: tested concentration 1.8 mM; for remaining activity at 2300 µM: tested concentration 2.3 mM; for remaining activity at 2400 µM: tested concentration 2.4 mM; for remaining activity at 2100 µM: tested concentration 2.1 mM
T1 construct: made in house; host or cells: E. coli

[2] = Solubility at tested concentrations in the fragment library screening; format: physicochemical
From the text: (§1) Supplement IENZ_A_2149745_SM2502.zip/DDlB_CDR05_SI_20221103.xlsx, sheet "Fragment library screening" | column: Solubility at tested concentrations

[3] = Solubility at tested concentrations (fragment library screening); format: physicochemical
From the text: as §1

[4] = at the Tested concentration [mM]

SMILES: Cc1ccc(-c2c(N(C)c3ccc(C)cc3)c(=O)c2=O)cc1 [Compound E470-0191]
remaining activity at 1700 µM [1]: 73% | Solubility at tested concentrations ([2]; tested concentration 1.7 mM): not soluble

SMILES: CCOc1ccc2c(c1)cc(C(=O)NC)n2C [Compound D291-1849]
remaining activity at 2600 µM ([1]; tested concentration 2.6 mM): 95% | Solubility at tested concentrations ([3]; tested concentration 2.6 mM): not soluble

SMILES: CC1Cc2ccccc2N1c1c(-c2ccccc2)c(=O)c1=O (centres unmarked) [Compound E470-0446]
remaining activity at 1700 µM [1]: 2.16% | Solubility at tested concentrations ([2]; tested concentration 1.7 mM): not soluble

SMILES: NS(=O)(=O)c1ccc(NC(=O)C2CCCC2)cc1 [Compound Y205-5953]
remaining activity at 1900 µM [1]: 62% | Solubility at tested concentrations ([2]; tested concentration 1.9 mM): not soluble

SMILES: O=C(Cc1ccccc1[N+](=O)[O-])Nc1nnc[nH]1 [Compound 7882-1936]
remaining activity at 2000 µM ([1]; residual activity): 118% | Solubility at tested concentrations ([3]; tested concentration 2.0 mM): not soluble

SMILES: O=[N+]([O-])c1cc(Cl)c(O)c2ncccc12 [Compound 8017-0599]
remaining activity at 2200 µM ([1]; residual activity): 55% | Solubility at tested concentrations ([3]; tested concentration 2.2 mM): not soluble

SMILES: O=C(O)c1nccnc1C(=O)Nc1ccc([N+](=O)[O-])cc1 [Compound C612-1047]
remaining activity at 1700 µM [1]: 38% | Solubility at tested concentrations ([2]; tested concentration 1.7 mM): not soluble

SMILES: O=C(O)c1cnc2c(OC(F)(F)F)cccc2c1O [Compound Y042-3118]
remaining activity at 1800 µM ([1]; residual activity): 88% | Solubility at tested concentrations ([3]; tested concentration 1.8 mM): not soluble

SMILES: Cc1cccc(CC(=O)Nc2cccc(C(=O)O)c2)c1 [Compound Y206-6127]
remaining activity at 1900 µM [1]: 58% | Solubility at tested concentrations ([2]; tested concentration 1.9 mM): not soluble

SMILES: Cc1cc2nc(COC(=O)c3ccccc3)cc(=O)n2o1 [Compound G265-0746]
remaining activity at 1800 µM [1]: -1% | Solubility at tested concentrations ([2]; tested concentration 1.8 mM): not soluble

SMILES: Cc1cccc(CNC(=O)c2ccc3cccc(O)c3n2)c1 [Compound C066-5543]
remaining activity at 1700 µM ([1]; residual activity): 94% | Solubility at tested concentrations ([3]; tested concentration 1.7 mM): not soluble

SMILES: CCc1cccc2c(=O)c(C(=O)O)c[nH]c12 [Compound 2595-1123]
remaining activity at 2300 µM ([1]; residual activity): 47% | Solubility at tested concentrations ([3]; tested concentration 2.3 mM): not soluble

SMILES: CC1CCN(c2c(-c3ccccc3)c(=O)c2=O)CC1 [Compound E470-0346]
remaining activity at 2000 µM [1]: 98% | Solubility at tested concentrations ([2]; tested concentration 2.0 mM): not soluble

SMILES: O=C(O)c1cnc2ccc(F)cc2c1O [Compound Y042-3098]
remaining activity at 2400 µM [1]: 53% | Solubility at tested concentrations ([2]; tested concentration 2.4 mM): not soluble

SMILES: Oc1c(Cl)cc(Cl)c2ccc(Cl)nc12 [Compound 0422-0102]
remaining activity at 2000 µM ([1]; residual activity): 99% | Solubility at tested concentrations ([3]; tested concentration 2.0 mM): not soluble

SMILES: CC1CCN(S(=O)(=O)c2cnc(O)[nH]c2=O)CC1 [Compound D668-0109]
remaining activity at 1800 µM ([1]; residual activity): 97% | Solubility at tested concentrations ([3]; tested concentration 1.8 mM): not soluble

SMILES: Oc1cccc(/C=C/c2ccc3cccc(O)c3n2)c1 [Compound 5617-0440]
remaining activity at 1900 µM ([1]; residual activity): 55% | Solubility at tested concentrations ([3]; tested concentration 1.9 mM): not soluble

SMILES: Oc1ccccc1/N=C/c1ccc2cccc(O)c2n1 [Compound 0422-0036]
remaining activity at 1900 µM ([1]; residual activity): 79% | Solubility at tested concentrations ([3]; tested concentration 1.9 mM): not soluble

SMILES: Cc1ccc(-c2nc(O)nc3ccccc23)cc1 [Compound 3740-0006]
remaining activity at 2100 µM ([1]; residual activity): 83% | Solubility at tested concentrations ([3]; tested concentration 2.1 mM): not soluble

SMILES: O=c1c(NCc2ccco2)c(-c2ccccc2)c1=O [Compound E470-0461]
remaining activity at 2000 µM [1]: 137% | Solubility at tested concentrations ([2]; tested concentration 2.0 mM): not soluble

SMILES: O=c1c(NCCN2CCCCCC2)c(-c2ccccc2)c1=O [Compound E470-0490]
remaining activity at 1700 µM [1]: 88% | Solubility at tested concentrations ([2]; tested concentration 1.7 mM): not soluble

SMILES: CCCCc1ccc2ncc(C(=O)O)c(O)c2c1 [Compound Y044-2907]
remaining activity at 2000 µM [1]: 85% | Solubility at tested concentrations ([2]; tested concentration 2.0 mM): not soluble

Solubility at tested concentrations [2, 4]: not soluble
SMILES: c1ccc(-c2nnc(CC34CC5CC(CC(C5)C3)C4)o2)nc1 [Compound Y502-6922]

SMILES: COc1ccc(-c2ncc(C(=O)O)c(=O)[nH]2)cc1OC [Compound 8020-2710]
remaining activity at 1800 µM ([1]; residual activity): 91% | Solubility at tested concentrations ([3]; tested concentration 1.8 mM): not soluble

Solubility at tested concentrations [2, 4]: not soluble
SMILES: Cc1cccc2c(O)c(C(=O)O)cnc12 [Compound 4491-1619]

SMILES: N#Cc1c2c([nH]c(=O)c1C(=O)O)CCCC2 [Compound 8020-6318]
remaining activity at 2300 µM ([1]; residual activity): 93% | Solubility at tested concentrations ([3]; tested concentration 2.3 mM): not soluble

SMILES: Cc1cc(C)cc(NC(=O)c2ccc3cccc(O)c3n2)c1 [Compound G900-0230]
remaining activity at 1700 µM [1]: 92% | Solubility at tested concentrations ([3]; tested concentration 1.7 mM): not soluble

SMILES: Oc1nc(-c2ccc(Cl)cc2)c2ccccc2n1 [Compound 3740-0004]
remaining activity at 1900 µM ([1]; residual activity): 83% | Solubility at tested concentrations ([3]; tested concentration 1.9 mM): not soluble

SMILES: Oc1cc(-c2ccccc2)cc2c1nnc1ncnn12 [Compound Y021-2954]
remaining activity at 1900 µM ([1]; residual activity): 79% | Solubility at tested concentrations ([3]; tested concentration 1.9 mM): not soluble

SMILES: O=C(N/N=C/c1ccc2cccc(O)c2n1)c1ccncc1 [Compound 8006-6830]
remaining activity at 1700 µM ([1]; residual activity): 71% | Solubility at tested concentrations ([3]; tested concentration 1.7 mM): not soluble

SMILES: Cc1ccc(CS(=O)(=O)N2CCCCC2)cc1 [Compound Y300-3037]
remaining activity at 2400 µM [1]: 88% | Solubility at tested concentrations ([3]; tested concentration 2.4 mM): not soluble

SMILES: COCCNc1c(-c2ccc(C)cc2)c(=O)c1=O [Compound E470-0131]
remaining activity at 2000 µM [1]: 78% | Solubility at tested concentrations ([3]; tested concentration 2.0 mM): not soluble

Solubility at tested concentrations [2, 4]: not soluble
SMILES: CC1=C(c2cccc(Cl)c2)S(=O)(=O)N=C1NC(C)C [Compound E013-2266]

SMILES: O=[N+]([O-])c1cc(Cl)c2cccnc2c1O [Compound 8011-4676]
remaining activity at 2200 µM ([1]; residual activity): 49% | Solubility at tested concentrations ([3]; tested concentration 2.2 mM): not soluble

SMILES: O=C(Cc1c[nH]c2ncccc12)NCC1CCCCC1 [Compound M508-0609]
remaining activity at 1800 µM ([1]; residual activity): 92% | Solubility at tested concentrations ([3]; tested concentration 1.8 mM): not soluble

SMILES: CC(C)c1ccc(C(=O)Nc2nnc[nH]2)cc1 [Compound Y200-5752]
remaining activity at 2200 µM ([1]; residual activity): 52% | Solubility at tested concentrations ([3]; tested concentration 2.2 mM): not soluble

SMILES: Oc1cccc2c1nnc1nc(-c3cccnc3)nn12 [Compound Y021-2955]
remaining activity at 1900 µM ([1]; residual activity): 45% | Solubility at tested concentrations ([3]; tested concentration 1.9 mM): not soluble

SMILES: O=C(Cc1ccc(Cl)cc1)Nc1nnc[nH]1 [Compound 7881-1517]
remaining activity at 2100 µM ([1]; residual activity): 79% | Solubility at tested concentrations ([3]; tested concentration 2.1 mM): not soluble

SMILES: COc1ccc(-c2ccc(C(=O)O)c(=O)[nH]2)cc1 [Compound D724-1039]
remaining activity at 2000 µM ([1]; residual activity): 76% | Solubility at tested concentrations ([3]; tested concentration 2.0 mM): not soluble

SMILES: O=C(NC1CCCCC1)c1ccc2cccc(O)c2n1 [Compound G900-0104]
remaining activity at 1800 µM ([1]; residual activity): 80% | Solubility at tested concentrations ([3]; tested concentration 1.8 mM): not soluble

SMILES: Cc1cc(N)nn1CC(=O)O [Compound Y504-8763]
remaining activity at 3200 µM ([1]; tested concentration 3.2 mM): 57% | Solubility at tested concentrations ([3]; tested concentration 3.2 mM): not soluble

Solubility at tested concentrations [2, 4]: not soluble
SMILES: COc1ccccc1NC(=O)NC1COc2ccccc2C1 (centres unmarked) [Compound G765-0207]

SMILES: Oc1cccc2ccc(/C=C/c3ccc4c(c3)OCO4)nc12 [Compound 4896-3346]
remaining activity at 1700 µM ([1]; residual activity): 139% | Solubility at tested concentrations ([3]; tested concentration 1.7 mM): not soluble

SMILES: Cc1cc(C)c2c(=O)[nH]n(C3CCCCCC3)c2n1 [Compound 8016-0079]
remaining activity at 2300 µM [1]: 81% | Solubility at tested concentrations ([3]; tested concentration 2.3 mM): not soluble

Solubility at tested concentrations [2, 4]: not soluble
SMILES: CCc1c(C)[nH]c(=O)c(C(=O)O)c1C#N [Compound 8020-6317]

SMILES: O=C(O)c1nccnc1C(=O)Nc1cccc(Cl)c1 [Compound C612-0847]
remaining activity at 1800 µM ([1]; residual activity): 52% | Solubility at tested concentrations ([3]; tested concentration 1.8 mM): not soluble

SMILES: COc1cccc2c1ncc1c(=O)n3cccc(O)c3nc12 [Compound 8018-0164]
remaining activity at 1700 µM [1]: 72% | Solubility at tested concentrations ([3]; tested concentration 1.7 mM): not soluble

SMILES: Oc1cccc2ccc(Nc3ccccn3)nc12 [Compound 0422-0008]
remaining activity at 2100 µM ([1]; residual activity): 31% | Solubility at tested concentrations ([3]; tested concentration 2.1 mM): not soluble

SMILES: Cc1ccc(-c2csc(NC(=O)CO)n2)cc1 [Compound 8005-2972]
remaining activity at 2000 µM ([1]; residual activity): 88% | Solubility at tested concentrations ([3]; tested concentration 2.0 mM): not soluble

SMILES: CCC(C)(C)Nc1c(-c2ccccc2)c(=O)c1=O [Compound E470-0411]
remaining activity at 2100 µM [1]: 48% | Solubility at tested concentrations ([3]; tested concentration 2.1 mM): not soluble

Solubility at tested concentrations [2, 4]: not soluble
SMILES: Cc1cc(C)c2ccc(/C=N/O)nc2c1O [Compound 0422-0035]

Solubility at tested concentrations [2, 4]: not soluble
SMILES: Cc1cc(C)c(S(=O)(=O)N(C)C2CCCCC2)c(C)c1 [Compound Y030-0169]

SMILES: O=C(N/N=C/c1ccc2cccc(O)c2n1)c1ccco1 [Compound 8006-5465]
remaining activity at 1800 µM ([1]; residual activity): 72% | Solubility at tested concentrations ([3]; tested concentration 1.8 mM): not soluble

Solubility at tested concentrations [2, 4]: not soluble
SMILES: O=S(=O)(c1c[nH]cn1)N1CCCC1c1cccc(F)c1 (centres unmarked) [Compound D399-0575]

Solubility at tested concentrations [2, 4]: not soluble
SMILES: O=C(O)c1ccc(-c2ccccc2)nc1O [Compound D724-1054]

SMILES: CCc1cccc(NC(=O)c2ccc3cccc(O)c3n2)c1 [Compound G900-0169]
remaining activity at 1700 µM [1]: 69% | Solubility at tested concentrations ([3]; tested concentration 1.7 mM): not soluble

SMILES: O=C(O)c1ccc(N2Cc3ccccc3C2)cc1O [Compound 8005-9285]
remaining activity at 2000 µM ([1]; residual activity): 61% | Solubility at tested concentrations ([3]; tested concentration 2.0 mM): not soluble

SMILES: Cc1cc(C2CCCN2Cc2ccccc2O)on1 (centres unmarked) [Compound J006-2498]
remaining activity at 2300 µM [1]: 90% | Solubility at tested concentrations ([3]; tested concentration 2.3 mM): not soluble
